Results on one compound are retold here after publication PMC10507085, “Pharmacological inhibition of TBK1/IKKε blunts immunopathology in a murine model of SARS-CoV-2 infection” (Nature Communications, 2023).

Targets include WEE2 (Homo sapiens, UniProt P0C1S8); LIMK1 (Homo sapiens, UniProt P53667); CAMK2A (Homo sapiens, UniProt Q9UQM7); SIK1 (Homo sapiens, UniProt P57059); CDC42BPA (Homo sapiens, UniProt Q5VT25); EPHA1 (Homo sapiens, UniProt P21709); PRKACA (Homo sapiens, UniProt P17612); MAP2K1 (Homo sapiens, UniProt Q02750); BLK (Homo sapiens, UniProt P51451); CSNK2A2 (Homo sapiens, UniProt P19784); EPHB4 (Homo sapiens, UniProt P54760); MERTK (Homo sapiens, UniProt Q12866); TEK (Homo sapiens, UniProt Q02763); SGK3 (Homo sapiens, UniProt Q96BR1); STK32A (Homo sapiens, UniProt Q8WU08); EPHA4 (Homo sapiens, UniProt P54764); MAP4K3 (Homo sapiens, UniProt Q8IVH8); MAP2K2 (Homo sapiens, UniProt P36507); SYK (Homo sapiens, UniProt P43405).

What all share (assay): biochemical
Holding throughout (set-up): KINOMEscan competition binding, DNA-tagged kinase against immobilised ligand, qPCR read-out
What all share (settings): read-out: Percent Control
(In general: Real-time PCR tracks product formation cycle by cycle.)

The target in test [1] is T1, JAK1(JH1domain-catalytic) (Homo sapiens, UniProt P23458).
T1 construct: JH1 domain catalytic

Chain of EPHB4 (P54760 whole entry): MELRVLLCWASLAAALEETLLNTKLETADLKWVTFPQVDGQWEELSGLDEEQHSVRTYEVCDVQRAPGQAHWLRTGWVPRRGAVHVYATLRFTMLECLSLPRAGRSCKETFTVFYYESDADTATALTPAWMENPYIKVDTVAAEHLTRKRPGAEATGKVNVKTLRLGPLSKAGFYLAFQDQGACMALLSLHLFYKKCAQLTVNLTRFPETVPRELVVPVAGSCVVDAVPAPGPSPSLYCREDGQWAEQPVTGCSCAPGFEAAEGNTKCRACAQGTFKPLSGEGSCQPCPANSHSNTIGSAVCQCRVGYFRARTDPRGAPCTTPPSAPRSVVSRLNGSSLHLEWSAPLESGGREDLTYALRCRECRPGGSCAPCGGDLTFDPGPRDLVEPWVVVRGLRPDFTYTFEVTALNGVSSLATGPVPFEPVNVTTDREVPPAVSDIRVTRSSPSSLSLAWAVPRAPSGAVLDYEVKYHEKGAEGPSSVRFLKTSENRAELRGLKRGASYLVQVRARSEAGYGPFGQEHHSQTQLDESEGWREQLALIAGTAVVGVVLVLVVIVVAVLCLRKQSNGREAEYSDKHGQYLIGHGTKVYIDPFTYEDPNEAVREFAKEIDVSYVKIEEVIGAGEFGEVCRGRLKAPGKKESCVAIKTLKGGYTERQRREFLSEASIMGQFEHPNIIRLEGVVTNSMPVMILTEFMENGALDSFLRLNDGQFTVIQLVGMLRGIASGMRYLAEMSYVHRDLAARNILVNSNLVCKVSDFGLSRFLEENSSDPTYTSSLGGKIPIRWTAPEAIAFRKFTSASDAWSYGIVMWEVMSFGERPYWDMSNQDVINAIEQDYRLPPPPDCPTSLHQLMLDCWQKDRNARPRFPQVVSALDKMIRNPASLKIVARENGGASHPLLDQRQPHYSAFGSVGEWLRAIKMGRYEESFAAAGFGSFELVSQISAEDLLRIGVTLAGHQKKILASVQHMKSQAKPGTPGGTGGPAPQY
Chain of TEK (Q02763 whole entry): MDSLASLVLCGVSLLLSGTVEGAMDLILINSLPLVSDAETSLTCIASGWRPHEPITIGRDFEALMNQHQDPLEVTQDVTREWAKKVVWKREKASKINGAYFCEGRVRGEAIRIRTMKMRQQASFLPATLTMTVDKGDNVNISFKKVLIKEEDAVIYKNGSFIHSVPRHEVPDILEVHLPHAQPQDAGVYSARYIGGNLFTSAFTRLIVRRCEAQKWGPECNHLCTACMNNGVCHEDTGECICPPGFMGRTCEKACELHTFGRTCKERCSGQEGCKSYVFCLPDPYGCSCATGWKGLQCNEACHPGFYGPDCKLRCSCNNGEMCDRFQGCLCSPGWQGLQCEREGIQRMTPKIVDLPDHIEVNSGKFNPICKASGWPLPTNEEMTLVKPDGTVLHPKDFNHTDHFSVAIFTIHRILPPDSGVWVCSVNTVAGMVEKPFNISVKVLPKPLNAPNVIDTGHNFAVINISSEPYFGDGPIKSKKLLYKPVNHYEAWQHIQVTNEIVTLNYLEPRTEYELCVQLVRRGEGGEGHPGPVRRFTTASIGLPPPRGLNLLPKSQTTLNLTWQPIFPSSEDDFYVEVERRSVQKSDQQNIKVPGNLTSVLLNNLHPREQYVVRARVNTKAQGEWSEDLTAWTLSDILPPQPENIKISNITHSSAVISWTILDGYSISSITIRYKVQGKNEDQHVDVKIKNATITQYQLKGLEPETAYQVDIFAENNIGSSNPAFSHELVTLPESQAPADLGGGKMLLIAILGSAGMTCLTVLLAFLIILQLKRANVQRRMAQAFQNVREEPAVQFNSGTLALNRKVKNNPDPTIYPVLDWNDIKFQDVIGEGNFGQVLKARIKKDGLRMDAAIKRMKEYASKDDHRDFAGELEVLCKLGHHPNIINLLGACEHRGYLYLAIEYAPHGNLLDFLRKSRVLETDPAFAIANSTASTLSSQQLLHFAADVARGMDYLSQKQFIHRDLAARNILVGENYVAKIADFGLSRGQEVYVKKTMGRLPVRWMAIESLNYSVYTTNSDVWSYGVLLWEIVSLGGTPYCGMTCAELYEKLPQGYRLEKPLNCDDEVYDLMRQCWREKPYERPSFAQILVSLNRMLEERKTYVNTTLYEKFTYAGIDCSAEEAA
Chain of MAP2K1 (Q02750 whole entry): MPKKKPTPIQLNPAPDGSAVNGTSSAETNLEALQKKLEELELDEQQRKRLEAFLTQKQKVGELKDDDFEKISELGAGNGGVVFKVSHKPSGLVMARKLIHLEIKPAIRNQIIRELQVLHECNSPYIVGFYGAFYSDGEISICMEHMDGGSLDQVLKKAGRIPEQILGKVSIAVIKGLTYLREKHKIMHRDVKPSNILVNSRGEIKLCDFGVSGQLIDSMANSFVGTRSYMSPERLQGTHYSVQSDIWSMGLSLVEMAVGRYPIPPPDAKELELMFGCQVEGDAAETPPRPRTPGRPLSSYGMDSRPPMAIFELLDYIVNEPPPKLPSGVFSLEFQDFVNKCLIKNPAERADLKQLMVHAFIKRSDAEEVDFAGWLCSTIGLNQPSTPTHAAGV
Chain of STK32A (Q8WU08 whole entry): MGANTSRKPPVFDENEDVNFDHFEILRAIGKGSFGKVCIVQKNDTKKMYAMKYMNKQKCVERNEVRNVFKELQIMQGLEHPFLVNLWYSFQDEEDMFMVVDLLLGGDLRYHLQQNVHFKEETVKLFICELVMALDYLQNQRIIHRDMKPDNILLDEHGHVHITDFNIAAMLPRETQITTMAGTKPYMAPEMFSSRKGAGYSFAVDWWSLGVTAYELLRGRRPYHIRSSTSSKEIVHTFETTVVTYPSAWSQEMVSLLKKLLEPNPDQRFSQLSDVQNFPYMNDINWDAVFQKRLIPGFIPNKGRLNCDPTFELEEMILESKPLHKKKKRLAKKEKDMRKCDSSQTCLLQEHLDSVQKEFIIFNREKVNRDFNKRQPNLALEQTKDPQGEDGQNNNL
Chain of WEE2 (P0C1S8 whole entry): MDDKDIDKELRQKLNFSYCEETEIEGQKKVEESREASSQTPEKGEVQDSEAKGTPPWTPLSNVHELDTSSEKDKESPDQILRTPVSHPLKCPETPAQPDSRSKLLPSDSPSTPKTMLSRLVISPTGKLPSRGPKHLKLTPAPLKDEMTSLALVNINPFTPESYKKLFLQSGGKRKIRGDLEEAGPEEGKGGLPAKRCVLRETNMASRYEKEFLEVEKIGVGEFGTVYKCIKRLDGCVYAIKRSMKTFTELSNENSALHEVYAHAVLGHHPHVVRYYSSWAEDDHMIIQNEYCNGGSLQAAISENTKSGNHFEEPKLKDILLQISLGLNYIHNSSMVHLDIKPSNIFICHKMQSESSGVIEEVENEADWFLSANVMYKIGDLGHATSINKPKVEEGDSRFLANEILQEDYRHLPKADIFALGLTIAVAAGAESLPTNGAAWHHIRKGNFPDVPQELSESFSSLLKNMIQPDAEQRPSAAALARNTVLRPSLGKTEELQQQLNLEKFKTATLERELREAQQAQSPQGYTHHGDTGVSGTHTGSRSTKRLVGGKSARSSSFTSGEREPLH
Chain of MAP2K2 (P36507 whole entry): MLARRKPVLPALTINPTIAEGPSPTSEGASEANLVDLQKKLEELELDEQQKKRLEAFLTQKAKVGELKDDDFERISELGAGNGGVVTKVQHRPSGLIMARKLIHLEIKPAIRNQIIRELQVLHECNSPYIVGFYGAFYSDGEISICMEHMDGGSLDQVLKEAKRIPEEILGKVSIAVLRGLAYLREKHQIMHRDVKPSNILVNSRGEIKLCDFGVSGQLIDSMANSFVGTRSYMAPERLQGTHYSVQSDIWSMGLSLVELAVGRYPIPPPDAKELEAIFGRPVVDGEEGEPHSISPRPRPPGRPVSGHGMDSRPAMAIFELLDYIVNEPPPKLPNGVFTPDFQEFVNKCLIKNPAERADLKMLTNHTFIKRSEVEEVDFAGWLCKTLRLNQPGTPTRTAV
Chain of SIK1 (P57059 whole entry): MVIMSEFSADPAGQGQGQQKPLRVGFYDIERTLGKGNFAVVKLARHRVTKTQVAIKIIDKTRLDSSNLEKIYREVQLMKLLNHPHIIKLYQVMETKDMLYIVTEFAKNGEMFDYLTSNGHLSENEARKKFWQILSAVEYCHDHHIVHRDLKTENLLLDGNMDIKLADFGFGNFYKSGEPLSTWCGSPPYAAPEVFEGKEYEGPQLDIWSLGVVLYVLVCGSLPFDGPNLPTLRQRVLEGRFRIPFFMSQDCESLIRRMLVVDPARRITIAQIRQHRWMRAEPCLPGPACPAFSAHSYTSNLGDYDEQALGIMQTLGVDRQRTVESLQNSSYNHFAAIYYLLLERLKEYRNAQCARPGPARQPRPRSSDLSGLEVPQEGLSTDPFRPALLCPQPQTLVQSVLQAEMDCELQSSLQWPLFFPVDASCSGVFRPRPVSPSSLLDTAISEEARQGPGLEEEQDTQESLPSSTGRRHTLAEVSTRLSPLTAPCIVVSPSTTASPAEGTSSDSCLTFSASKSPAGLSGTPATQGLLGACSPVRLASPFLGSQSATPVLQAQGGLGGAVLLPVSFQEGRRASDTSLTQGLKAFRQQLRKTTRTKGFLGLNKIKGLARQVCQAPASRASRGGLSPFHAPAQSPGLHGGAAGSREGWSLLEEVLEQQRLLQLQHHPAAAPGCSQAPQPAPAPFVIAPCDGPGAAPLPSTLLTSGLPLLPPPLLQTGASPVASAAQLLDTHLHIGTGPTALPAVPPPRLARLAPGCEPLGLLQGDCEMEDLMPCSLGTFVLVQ
Chain of CSNK2A2 (P19784 whole entry): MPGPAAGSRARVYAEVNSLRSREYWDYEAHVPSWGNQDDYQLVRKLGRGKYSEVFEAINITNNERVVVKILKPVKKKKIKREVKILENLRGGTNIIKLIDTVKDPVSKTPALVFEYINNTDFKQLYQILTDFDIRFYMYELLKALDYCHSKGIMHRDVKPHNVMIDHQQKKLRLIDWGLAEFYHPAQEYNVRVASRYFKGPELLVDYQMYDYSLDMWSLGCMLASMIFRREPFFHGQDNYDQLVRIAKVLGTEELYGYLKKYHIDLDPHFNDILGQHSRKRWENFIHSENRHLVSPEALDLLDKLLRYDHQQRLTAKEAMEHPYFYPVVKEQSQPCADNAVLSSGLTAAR

Consider `Oc1ccc(C2=Cc3ccc(O)cc3OC2)cc1` [compound 1, idronoxil], for which the remaining binding at 10 µM on WEE2 was 95%; at LIMK1, 89%; on CAMK2A, 87%; at SIK1, 97%; at CDC42BPA, 98%; on EPHA1 it was 69%. Besides, the remaining binding at 10 µM at PRKACA is 78%; on MAP2K1, 86%; at BLK, 57%; at CSNK2A2 it was 35%; on EPHB4 it was 90%; at MERTK, 97%. Also, the remaining binding at 10 µM at TEK stood at 96%; at SGK3 it was 49%; on STK32A, 94%; at EPHA4, 84%; on MAP4K3, 92%; at MAP2K2, 79%. The remaining binding at 10 µM was 93% in test [1] and 62% on SYK.
